Results published in the supplement of paper PMC4862054.
Several values for one entry are separate records, joined by “and”; a condition that tells them apart may be missing. Equal entries are not always repeated.

Tests used:
Details in all cases: incubation time: 72 h
[1] = system: CAL-51; experiment: normalised viability (% of control), CellTiter-Blue; higher = more viable cells (about 100 = DMSO control)
Description: (§1)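 DSRT, CellTiter-Blue viability, 72 h incubation. Signal is normalised to DMSO and benzethonium chloride controls. Value is the normalised response at dose 9.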

[2] = system: CAL-148; experiment: as above
Description: as §1

[3] = system: MDA-MB-453; experiment: as above
Description: as §1

[4] = system: CAL-85-1; experiment: as above
Description: as §1

[5] = system: DU-4475; experiment: as above
Description: as §1

[6] = system: HDQ-P1; experiment: as above
Description: as §1

[7] = system: MDA-MB-436; experiment: normalised response (% of control), CellTiter-Glo; higher = more viable cells (100 = DMSO, 0 = benzethonium chloride kill control)
Method in brief: (§2)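 Every value is a normalised signal taken at one concentration of a dilution series. Compound was placed in 384-well plates at 5 concentrations in 10-fold steps over a compound-specific 10,000-fold range, and 20 µl of breast cancer cell suspension was seeded onto it. After 72 h, CellTox Green fluorescence (485/520 nm) was measured first and CellTiter-Glo luminescence second, following 10 min at room temperature. Each plate was scaled to 0.1 % DMSO (100) and a positive kill control (0).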

[8] = system: Hs578T; experiment: as above
Method in brief: as §2

[9] = system: HCC1599; experiment: as above
Method in brief: as §2

[10] = system: HCC1143; experiment: as above
Method in brief: as §2

[11] = system: BT-549; experiment: as above
Method in brief: as §2

[12] = system: CAL-51; experiment: as above
Method in brief: as §2

[13] = system: SK-BR-3; experiment: as above
Method in brief: as §2

[14] = system: CAL-148; experiment: as above
Method in brief: as §2

[15] = system: MDA-MB-453; experiment: as above
Method in brief: as §2

[16] = system: MDA-MB-468; experiment: as above
Method in brief: as §2

[17] = system: HCC1937; experiment: as above
Method in brief: as §2

[18] = system: MDA-MB-231; experiment: as above
Method in brief: as §2

[19] = system: CAL-85-1; experiment: as above
Method in brief: as §2

[20] = system: DU-4475; experiment: as above
Method in brief: as §2

[21] = system: MFM-223; experiment: as above
Method in brief: as §2

[22] = system: BT-474; experiment: as above
Method in brief: as §2

[23] = system: CAL-120; experiment: as above
Method in brief: as §2

[24] = system: MCF-10A; experiment: as above
Method in brief: as §2

[25] = system: HDQ-P1; experiment: as above
Method in brief: as §2

[26] = system: MDA-MB-436; experiment: normalised viability (% of control), CellTiter-Blue; higher = more viable cells (100 = DMSO, 0 = benzethonium chloride kill control)
Description: (§3)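 DSRT, CellTiter-Blue viability, 72 h incubation. Signal is normalised to DMSO and benzethonium chloride controls. Value is the normalised response at dose 1.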

[27] = system: HCC1143; experiment: as above
Description: as §3

[28] = system: BT-549; experiment: as above
Description: as §3

[29] = system: CAL-51; experiment: as above
Description: as §3

[30] = system: SK-BR-3; experiment: as above
Description: as §3

[31] = system: CAL-148; experiment: as above
Description: as §3

[32] = system: MDA-MB-468; experiment: as above
Description: as §3

[33] = system: MDA-MB-231; experiment: as above
Description: as §3

[34] = system: CAL-85-1; experiment: as above
Description: as §3

[35] = system: DU-4475; experiment: as above
Description: as §3

[36] = system: MFM-223; experiment: as above
Description: as §3

[37] = system: BT-474; experiment: as above
Description: as §3

[38] = system: HDQ-P1; experiment: as above
Description: as §3

[39] = system: CAL-51; experiment: normalised viability (% of control), CellTiter-Blue; higher = more viable cells (about 100 = DMSO control); remark: listed apart in the source
Description: (§4)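 DSRT, CellTiter-Blue viability, 72 h incubation. Signal is normalised to DMSO and benzethonium chloride controls. Value is the normalised response at dose 8.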

[40] = system: CAL-148; experiment: as above; remark: listed apart in the source
Description: as §4

[41] = system: MDA-MB-453; experiment: as above; remark: listed apart in the source
Description: as §4

[42] = system: CAL-85-1; experiment: as above; remark: listed apart in the source
Description: as §4

[43] = system: DU-4475; experiment: as above; remark: listed apart in the source
Description: as §4

[44] = system: HDQ-P1; experiment: as above; remark: listed apart in the source
Description: as §4

For Cc1cc(Nc2cc(CN3CCOCC3)c3nc(C)c(Cc4ccc(Cl)cc4F)n3n2)n[nH]1 (10000 nM), the normalised viability [1] was 12.5%, the normalised viability [2] was 62.4% and the normalised viability [3] was 36%. For the same compound, the normalised viability [4] was 33.1%, the normalised viability [5] was 36.9% and the normalised viability [6] was 15%.

COC(=O)c1ccc2c(c1)NC(=O)/C2=C(\Nc1ccc(N(C)C(=O)CN2CCN(C)CC2)cc1)c1ccccc1 [BIBF 1120] (10000 nM) showed a normalised viability [1] of 42.3%, a normalised viability [2] of 70.5% and a normalised viability [3] of 2.37%. For the same compound, the normalised viability [4] was 53.9%, the normalised viability [5] was 24.8% and the normalised viability [6] was 56.6%.

Nc1cc(C(F)(F)F)c(-c2cc(N3CCOCC3)nc(N3CCOCC3)n2)cn1 [BKM-120] (10000 nM) gave a normalised viability [1] of 4.15%, a normalised viability [2] of 6.46% and a normalised viability [3] of 6.1%. It also gave a normalised viability [4] of 20.1%, a normalised viability [5] of 12.7% and a normalised viability [6] of 12.4%.

CCc1c2c(nc3ccc(OC(=O)N4CCC(N5CCCCC5)CC4)cc13)-c1cc3c(c(=O)n1C2)COC(=O)[C@]3(O)CC [Irinotecan] (1 nM) was tested, and the normalised response [7] was 97.9%, the normalised response [8] was 95.9% and the normalised response [9] was 105%. The normalised response [10] was 93.9%, the normalised response [11] was 109% and the normalised response [12] was 81.6%. It also gave a normalised response [13] of 110%, a normalised response [14] of 98.3% and a normalised response [15] of 114%. It also gave a normalised response [16] of 107%, a normalised response [17] of 97.2% and a normalised response [18] of 90.3%. It also gave a normalised response [19] of 116%, a normalised response [20] of 104% and a normalised response [21] of 94%. The normalised response [22] was 98.5%, the normalised response [23] was 94.2% and the normalised response [24] was 96.5%. The normalised response [25] was 97.3%, the normalised viability [26] was 97.6% and 117% and the normalised viability [27] was 87.2% and 101%. The normalised viability [28] was 95.7% and 90.7%, the normalised viability [29] was 106% and 112% and the normalised viability [30] was 84.7% and 99.9%. For the same compound, the normalised viability [31] was 91.5% and 110%, the normalised viability [32] was 96.8% and 102% and the normalised viability [33] was 82.3% and 98.2%. The normalised viability [34] was 83% and 98.7%, the normalised viability [35] was 98.7% and 106% and the normalised viability [36] was 93.6% and 104%. For the same compound, the normalised viability [37] was 103% and 98% and the normalised viability [38] was 89% and 101%.

Compound O=C(Nc1cccnc1)N1CCC(Cc2cccc(Oc3ccc(C(F)(F)F)cn3)c2)CC1 [PF-3845] (3000 nM) has a normalised viability [39] of 93.2%, a normalised viability [40] of 97.9% and a normalised viability [41] of 62.1%. The normalised viability [42] was 93.9%, the normalised viability [43] was 93.9% and the normalised viability [44] was 122%.

With Cc1[nH]c2ccccc2c1CCNCc1ccc(/C=C/C(=O)NO)cc1 [Panobinostat] (300 nM) the normalised viability [39] was 5.46%, the normalised viability [40] was 1.12% and the normalised viability [41] was 1.93%. It also gave a normalised viability [42] of 7.2%, a normalised viability [43] of 6.86% and a normalised viability [44] of 23.1%.

Compound COCC1(CO)C(=O)C2CCN1CC2 (centres undefined) [Prima-1 Met] (3000 nM) has a normalised viability [39] of 97.2%, a normalised viability [40] of 89.1% and a normalised viability [41] of 100%. The normalised viability [42] was 91.4%, the normalised viability [43] was 101% and the normalised viability [44] was 77.5%.

With CNC(=O)c1cc(Oc2ccc(NC(=O)Nc3ccc(Cl)c(C(F)(F)F)c3)c(F)c2)ccn1 [Regorafenib] (3000 nM) the normalised viability [39] was 69.5%, the normalised viability [40] was 95.8% and the normalised viability [41] was 53.1%. The normalised viability [42] was 86.6%, the normalised viability [43] was 67.6% and the normalised viability [44] was 88.4%.

Compound CO[C@H]1C[C@@H]2CC[C@@H](C)[C@@](O)(O2)C(=O)C(=O)N2CCCC[C@H]2C(=O)O[C@H]([C@H](C)C[C@@H]2CC[C@@H](OP(C)(C)=O)[C@H](OC)C2)CC(=O)[C@H](C)/C=C(\C)[C@@H](O)[C@@H](OC)C(=O)[C@H](C)C[C@H](C)/C=C/C=C/C=C/1C [Ridaforolimus] (300 nM) has a normalised viability [39] of 35.5%, a normalised viability [40] of 34.2% and a normalised viability [41] of 28.5%. It also gave a normalised viability [42] of 55.4%, a normalised viability [43] of 51.7% and a normalised viability [44] of 65.8%.

For CO[C@H]1C[C@@H]2CC[C@@H](C)[C@@](O)(O2)C(=O)C(=O)N2CCCC[C@H]2C(=O)O[C@H]([C@H](C)C[C@@H]2CC[C@@H](OP(C)(C)=O)[C@H](OC)C2)CC(=O)[C@H](C)/C=C(\C)[C@@H](O)[C@@H](OC)C(=O)[C@H](C)C[C@H](C)/C=C/C=C/C=C/1C [Ridaforolimus] (1000 nM), the normalised viability [1] was 31.3%, the normalised viability [2] was 35.4% and the normalised viability [3] was 21.4%. For the same compound, the normalised viability [4] was 50.6%, the normalised viability [5] was 6.1% and the normalised viability [6] was 81.7%.

With c1ccc2c(CCNc3ccc(Nc4ccncc4)cc3)c[nH]c2c1 [Serdemetan] (3000 nM) the normalised viability [39] was 88.5%, the normalised viability [40] was 67% and the normalised viability [41] was 66.8%. It also gave a normalised viability [42] of 67.1%, a normalised viability [43] of 79.5% and a normalised viability [44] of 89%.

S=P(N1CC1)(N1CC1)N1CC1 [Thio-TEPA] (30000 nM) was tested, and the normalised viability [39] was 102%, the normalised viability [40] was 127% and the normalised viability [41] was 97%. For the same compound, the normalised viability [42] was 97.8%, the normalised viability [43] was 103% and the normalised viability [44] was 108%.

Compound S=P(N1CC1)(N1CC1)N1CC1 [Thio-TEPA] (100000 nM) has a normalised viability [1] of 99.7%, a normalised viability [2] of 111% and a normalised viability [3] of 104%. The normalised viability [4] was 101%, the normalised viability [5] was 102% and the normalised viability [6] was 91.3%.

For CN(C)CCOc1ccc(/C(=C(/CCCl)c2ccccc2)c2ccccc2)cc1 [Toremifene] (3000 nM), the normalised viability [39] was 95.8%, the normalised viability [40] was 104% and the normalised viability [41] was 99.7%. It also gave a normalised viability [42] of 109%, a normalised viability [43] of 101% and a normalised viability [44] of 113%.

Work on CC(C)C[C@@H](C(=O)N[C@H](C(=O)OC1CCCC1)c1ccccc1)[C@H](O)C(=O)NO [Tosedostat] (3000 nM) yielded a normalised viability [39] of 75.3%, a normalised viability [40] of 56.5% and a normalised viability [41] of 49.8%. It also gave a normalised viability [42] of 61.1%, a normalised viability [43] of 48.1% and a normalised viability [44] of 72.9%.

COc1cc2/c(=N/c3ccc(Br)cc3F)nc[nH]c2cc1OCC1CCN(C)CC1 [Vandetanib] (3000 nM) gave a normalised viability [39] of 49.2%, a normalised viability [40] of 77% and a normalised viability [41] of 72.3%. It also gave a normalised viability [42] of 50.5%, a normalised viability [43] of 125% and a normalised viability [44] of 27.5%.

COc1cc2/c(=N/c3ccc(Br)cc3F)nc[nH]c2cc1OCC1CCN(C)CC1 [Vandetanib] (10000 nM) showed a normalised viability [1] of 15.3%, a normalised viability [2] of 59.6% and a normalised viability [3] of 17.4%. For the same compound, the normalised viability [4] was 17.3%, the normalised viability [5] was 111% and the normalised viability [6] was 8.94%.

In the case of COCC[n+]1c2c(n(Cc3cnccn3)c1C)C(=O)c1ccccc1C2=O [YM155] (3000 nM), the normalised viability [39] is reported as 1.46%, the normalised viability [40] is reported as 2.73% and the normalised viability [41] is reported as 2.38%. The normalised viability [42] was 2.51%, the normalised viability [43] was 0.2% and the normalised viability [44] was 0.93%.
